From patent publication US20260138988A1, “Spiropyrrolidine Derived Antiviral Agents” (Enanta Pharmaceuticals, Inc., priority 2021, published 2026)

The molecules below were run against SARS-CoV-2 3CL-protease (Severe acute respiratory syndrome coronavirus 2, UniProt P0DTD1) (assay: SARS-CoV-2 3C-Like (3CL) Protease Fluorescence Assay (FRET)). Details: IC50, SARS-CoV-2 3CL-protease 10 nM, test compounds 0-10 μM, duplicate.
Format: biochemical
Molecule `CC(C)C[C@@H](C(=O)N1C[C@]2(C[C@H]1C#N)C(=O)Nc1ccccc12)N(C)C(=O)[C@H](C)NC(=O)C(F)(F)C(F)(F)C(F)(F)C(F)(F)F` [Example 144] has an IC50 of under 0.1 µM.

Same assay, conditions: SARS-CoV-2 3CL-protease 10 nM, test compounds 0-10 μM, duplicate, read-out: IC50
In the case of `CC[C@H](NC(=O)C(=O)Nc1c(F)cccc1C(F)(F)F)C(=O)N(C)[C@@H](CC(C)C)C(=O)N1C[C@]2(C[C@H]1C#N)C(=O)Nc1ccccc12` [Example 193], the IC50 is reported as under 0.1 µM.
`C[C@H](NC(=O)c1cnn(-c2ccc(C(F)(F)F)cc2)c1)C(=O)N(C)[C@@H](CC(C)(C)C)C(=O)N1C[C@]2(C[C@H]1C#N)C(=O)Nc1ccccc12` [Example 221] was tested, and the IC50 was under 0.1 µM.
Molecule `CCN1[C@@H]2C[C@@H]2C[C@H]1C(=O)N(C)[C@@H](CC(C)C)C(=O)N1C[C@]2(C[C@H]1C#N)C(=O)Nc1ccccc12` [Example 261] has an IC50 of under 0.1 µM.
With `CC[C@H](NC(=O)C1(F)C(F)(F)C1(F)F)C(=O)N(C)[C@@H](CC(C)C)C(=O)N1C[C@]2(C[C@H]1C#N)C(=O)Nc1ccccc12` [Example 196] the IC50 was under 0.1 µM.
Work on `CC(C)N1[C@H](C(F)(F)F)CC[C@H]1C(=O)N(C)[C@@H](CC(C)(C)C)C(=O)N1C[C@]2(C[C@H]1C#N)C(=O)Nc1ccccc12` [Example 236] yielded an IC50 of 0.1 to 1 µM.
In the case of `CC[C@H](NC(=O)c1ccc(F)cc1C(F)(F)F)C(=O)N(C)[C@@H](CC(C)C)C(=O)N1C[C@]2(C[C@H]1C#N)C(=O)Nc1ccccc12` [Example 194], the IC50 is reported as under 0.1 µM.
For `C[C@H](NC(=O)C(F)(F)C(F)(F)F)C(=O)N(C)[C@@H](Cc1ccccc1)C(=O)N1C[C@]2(C[C@H]1C#N)C(=O)Nc1ccccc12` [Example 268], the IC50 was under 0.1 µM.
Work on `CC(C)C[C@@H](C(=O)N1C[C@]2(C[C@H]1C#N)C(=O)Nc1ccccc12)N(C)C(=O)[C@@H]1CC2(CCCC2)CN1C(C)C` [Example 255] yielded an IC50 of under 0.1 µM.
With `CC(C)C[C@@H](C(=O)N1C[C@]2(C[C@H]1C#N)C(=O)Nc1ccccc12)N(C)C(=O)[C@H](C)NC(=O)C(C)(F)F` [Example 273] the IC50 was under 0.1 µM.
`CC(C)C[C@@H](C(=O)N1C[C@]2(C[C@H]1C#N)C(=O)Nc1ccccc12)N(C)C(=O)[C@H](C)NC(=O)c1c(F)c(F)c(F)c(F)c1F` [Example 301] showed an IC50 of under 0.1 µM.
`CC(C)C[C@@H](C(=O)N1C[C@]2(C[C@H]1C#N)C(=O)Nc1ccccc12)N(C)C(=O)[C@@H]1[C@@H]2C[C@@H]2CN1C(C)C` [Example 251] was tested, and the IC50 was 0.1 to 1 µM.
`C[C@H](NC(=O)C(F)(F)C(F)(F)F)C(=O)N(C)[C@@H](CC(C)(C)C)C(=O)N1C[C@]2(C[C@H]1C#N)C(=O)Nc1ccc(Br)cc12` [Example 171] showed an IC50 of under 0.1 µM.
With `C[C@H](NC(=O)c1cc(F)c(F)c(F)c1)C(=O)N(C)[C@@H](CC(C)(C)C)C(=O)N1C[C@]2(C[C@H]1C#N)C(=O)Nc1ccccc12` [Example 214] the IC50 was under 0.1 µM.
`CC(C)(C)C[C@H](NC(=O)[C@@H](NC(=O)c1ccc(F)cc1)c1ccccc1)C(=O)N1C[C@]2(C[C@H]1C#N)C(=O)Nc1ccccc12` [Example 247] was tested, and the IC50 was under 0.1 µM.
`CC(N[C@@H](C)C(=O)N(C)[C@@H](CC(C)(C)C)C(=O)N1C[C@]2(C[C@H]1C#N)C(=O)Nc1ccccc12)C(F)(F)F` (stereo partly drawn) [Example 299] gave an IC50 of under 0.1 µM.
`C[C@H](NC(=O)c1ccc2c(c1)OC(F)(F)O2)C(=O)N(C)[C@@H](CC(C)(C)C)C(=O)N1C[C@]2(C[C@H]1C#N)C(=O)Nc1ccccc12` [Example 280] was tested, and the IC50 was under 0.1 µM.
With `CC(C)(C)C[C@H](NC(=O)[C@@H](Nc1cnc2ccccc2c1)C1CC1)C(=O)N1C[C@]2(C[C@H]1C#N)C(=O)Nc1ccccc12` [Example 343] the IC50 was under 0.1 µM.
For `CCN(C(=O)[C@H](C)NC(=O)N1CCCCC1)[C@@H](CC(C)C)C(=O)N1C[C@]2(C[C@H]1C#N)C(=O)Nc1ccccc12` [Example 370], the IC50 was under 0.1 µM.
For `CC(C)(C)C[C@H](NC(=O)[C@@H](NC(=O)C1CCC1)c1ccccc1)C(=O)N1C[C@]2(C[C@H]1C#N)C(=O)Nc1ccccc12` [Example 246], the IC50 was under 0.1 µM.
In the case of `CC(C)C[C@H](C(=O)N1C[C@]2(C[C@H]1C#N)C(=O)Nc1ccccc12)n1cccc(NC(=O)OC(C)(C)C)c1=O` [Example 360], the IC50 is reported as under 0.1 µM.
`CC(C)(C)C[C@H](NC(=O)[C@H](CC1CC1)NC(=O)C12CC(C)(C1)C2)C(=O)N1C[C@]2(C[C@H]1C#N)C(=O)Nc1ccccc12` [Example 317] showed an IC50 of under 0.1 µM.
`CC(C)(C)C[C@H](NC(=O)[C@@H](NC(=O)C(F)(F)F)c1ccccc1)C(=O)N1C[C@]2(C[C@H]1C#N)C(=O)Nc1ccccc12` [Example 245] was tested, and the IC50 was under 0.1 µM.
Work on `CC(C)C(=O)N[C@@H](C)C(=O)N[C@@H](CC(C)(C)C)C(=O)N1C[C@]2(C[C@H]1C#N)C(=O)Nc1ccccc12` [Example 223] yielded an IC50 of under 0.1 µM.
Work on `C[C@H](NC(=O)c1cc(F)cc2ccccc12)C(=O)N(C)[C@@H](CC(C)(C)C)C(=O)N1C[C@]2(C[C@H]1C#N)C(=O)Nc1ccccc12` [Example 292] yielded an IC50 of under 0.1 µM.
Molecule `C[C@H](NC(=O)C(C)(F)F)C(=O)N(C)[C@@H](CC(C)(C)C)C(=O)N1C[C@]2(C[C@H]1C#N)C(=O)Nc1ccccc12` [Example 288] has an IC50 of under 0.1 µM.
`CC(C)(C)C[C@H](NC(=O)[C@H](CC1CC1)NC(=O)c1cc(F)c(F)c(F)c1)C(=O)N1C[C@]2(C[C@H]1C#N)C(=O)Nc1ccccc12` [Example 312] showed an IC50 of under 0.1 µM.
Work on `CCC(F)(F)C(=O)N[C@@H](C)C(=O)N(C)[C@@H](CC(C)C)C(=O)N1C[C@]2(C[C@H]1C#N)C(=O)Nc1ccccc12` [Example 271] yielded an IC50 of under 0.1 µM.
For `CC(C)OC(=O)OCN1C(=O)[C@]2(C[C@@H](C#N)N(C(=O)[C@H](CC3CC3)N(C)C(=O)[C@H](C)NC(=O)C(F)(F)C(F)(F)F)C2)c2ccccc21` [Example 350], the IC50 was 0.1 to 1 µM.
Work on `CC(C)C[C@@H](C(=O)N1C[C@]2(C[C@H]1C#N)C(=O)Nc1ccccc12)N(C)C(=O)[C@H](C)NC(=O)C1(F)CC2(CCC2)C1` [Example 141] yielded an IC50 of under 0.1 µM.
`CC(C)C[C@@H](C(=O)N1C[C@]2(C[C@H]1C#N)C(=O)Nc1ccccc12)N(C)C(=O)[C@H](C)NC(=O)c1cccc(-c2ccc(C(F)(F)F)cc2)c1` [Example 147] showed an IC50 of under 0.1 µM.
`CC(C)(C)C[C@H](NC(=O)[C@H](CC1CC1)NC(=O)c1cc(F)c2nn(C3CC3)cc2c1)C(=O)N1C[C@]2(C[C@H]1C#N)C(=O)Nc1ccccc12` [Example 305] gave an IC50 of under 0.1 µM.
`C[C@H](NC(=O)c1ccccc1-c1ccccc1)C(=O)N(C)[C@@H](CC(C)(C)C)C(=O)N1C[C@]2(C[C@H]1C#N)C(=O)Nc1ccccc12` [Example 282] showed an IC50 of under 0.1 µM.
In the case of `C[C@H](NC(=O)C(F)(F)F)C(=O)N(C)[C@@H](C)C(=O)N1C[C@]2(C[C@H]1C#N)C(=O)Nc1ccccc12` [Example 204], the IC50 is reported as under 0.1 µM.
Work on `CC(C)N1CCc2cc(C(=O)N(C)[C@@H](CC(C)(C)C)C(=O)N3C[C@]4(C[C@H]3C#N)C(=O)Nc3ccccc34)[nH]c2C1` [Example 176] yielded an IC50 of under 0.1 µM.
With `CC(C)CC(NC(=O)C(F)(F)F)C(=O)N1CC[C@H](c2ccccc2)[C@H]1C(=O)N1C[C@]2(C[C@H]1C#N)C(=O)Nc1ccccc12` (stereo partly drawn) [Example 345] the IC50 was under 0.1 µM.
With `CC(C)C[C@@H](C(=O)N1C[C@]2(C[C@H]1C#N)C(=O)Nc1ccccc12)N(C)C(=O)[C@H](C)NC(=O)c1ccc(C(F)(F)F)cc1C(F)(F)F` [Example 291] the IC50 was under 0.1 µM.
For `CN1C[C@H](C(F)(F)F)C[C@H]1C(=O)N(C)[C@@H](CC(C)(C)C)C(=O)N1C[C@]2(C[C@H]1C#N)C(=O)Nc1ccccc12` [Example 230], the IC50 was 0.1 to 1 µM.
Work on `CC(C)(C)C[C@H](NC(=O)[C@H](CC1CC1)NC(=O)C1CCCCC1)C(=O)N1C[C@]2(C[C@H]1C#N)C(=O)Nc1ccccc12` [Example 327] yielded an IC50 of under 0.1 µM.
Molecule `C[C@@H](NC(=O)OCc1ccccc1)C(=O)N(C)[C@@H](CC(C)(C)C)C(=O)N1C[C@]2(C[C@H]1C#N)C(=O)Nc1ccccc12` [Example 307] has an IC50 of under 0.1 µM.
`C[C@H](NC(=O)C(F)(F)C(F)(F)F)C(=O)N(C)[C@@H](CC(C)(C)C)C(=O)N1C[C@]2(C[C@H]1C#N)C(=O)N(C)c1ccccc12` [Example 348] was tested, and the IC50 was under 0.1 µM.
In the case of `C[C@H](NC(=O)C1(F)C(F)(F)C1(F)F)C(=O)N(C)[C@@H](CC1CC1)C(=O)N1C[C@]2(C[C@H]1C#N)C(=O)Nc1ccccc12` [Example 195], the IC50 is reported as under 0.1 µM.
`C[C@H](NC(=O)c1ccc(Cl)cc1)C(=O)N(C)[C@@H](CC(C)(C)C)C(=O)N1C[C@]2(C[C@H]1C#N)C(=O)Nc1ccccc12` [Example 211] showed an IC50 of under 0.1 µM.
`C[C@H](NC(=O)c1cc(OC(F)(F)F)c2ncccc2c1)C(=O)N(C)[C@@H](CC(C)(C)C)C(=O)N1C[C@]2(C[C@H]1C#N)C(=O)Nc1ccccc12` [Example 210] was tested, and the IC50 was under 0.1 µM.
`CC(C)(C)C[C@H](NC(=O)[C@H](CC1CC1)NC(=O)C1CCC2(CC1)CC2)C(=O)N1C[C@]2(C[C@H]1C#N)C(=O)Nc1ccccc12` [Example 322] gave an IC50 of under 0.1 µM.
`C[C@H](NC(=O)C(C)(C)C)C(=O)N[C@@H](CC(C)(C)C)C(=O)N1C[C@]2(C[C@H]1C#N)C(=O)Nc1ccccc12` [Example 219] gave an IC50 of under 0.1 µM.
`C[C@H](NC(=O)c1ccc(F)cc1)C(=O)N(C)[C@@H](CC(C)(C)C)C(=O)N1C[C@]2(C[C@H]1C#N)C(=O)Nc1ccccc12` [Example 224] showed an IC50 of under 0.1 µM.
`CCCC(F)(F)C(=O)N[C@@H](C)C(=O)N(C)[C@@H](CC(C)C)C(=O)N1C[C@]2(C[C@H]1C#N)C(=O)Nc1ccccc12` [Example 277] was tested, and the IC50 was under 0.1 µM.
Molecule `C[C@H](NC(=O)CCCC(F)(F)F)C(=O)N(C)[C@@H](CC(C)(C)C)C(=O)N1C[C@]2(C[C@H]1C#N)C(=O)Nc1ccccc12` [Example 264] has an IC50 of under 0.1 µM.
In the case of `CC(C)(C)C[C@H](NC(=O)[C@@H](Nc1ccc(F)cc1F)C1CC1)C(=O)N1C[C@]2(C[C@H]1C#N)C(=O)Nc1ccccc12` [Example 341], the IC50 is reported as under 0.1 µM.
`CC(C)(C)C[C@H](NC(=O)[C@H](CC1CC1)NC(=O)c1cccc2cc(F)ccc12)C(=O)N1C[C@]2(C[C@H]1C#N)C(=O)Nc1ccccc12` [Example 315] was tested, and the IC50 was under 0.1 µM.
`CC(C)N1[C@H](C(=O)N(C)[C@@H](CC(C)(C)C)C(=O)N2C[C@]3(C[C@H]2C#N)C(=O)Nc2ccccc23)C[C@@H]2CCCC[C@@H]21` [Example 180] showed an IC50 of under 0.1 µM.
`CC(C)C[C@@H](C(=O)N1C[C@]2(C[C@H]1C#N)C(=O)Nc1ccccc12)N(C)C(=O)[C@H](C)NC(=O)c1cc2[nH]ccc2cc1F` [Example 186] was tested, and the IC50 was under 0.1 µM.
Molecule `C[C@H](NC(=O)C(F)(F)C(F)(F)F)C(=O)N(C)[C@@H](C)C(=O)N1C[C@]2(C[C@H]1C#N)C(=O)Nc1ccccc12` [Example 207] has an IC50 of under 0.1 µM.
